Data: patent publication US10100010B1, “4-methoxy pyrrole derivatives or salts thereof and pharmaceutical composition comprising the same” (Daewoong Pharmaceutical Co., Ltd., priority 2015, dated 2018)
Structures can show the parent of a compound that is named as a salt.

Experiments:
[1] = test system: basal gastric acid secretion in pylorus-ligated rats; assay: Inhibitory effects on basal gastric acid secretion in pylorus-ligated rats (Shay's rat model); type: in vivo, Sprague Dawley (SD) rats; details: 2.0 mg/kg into the duodenum, 5 hours after ligation
Experimental: Inhibitory effects of the compounds prepared in Examples 2, 8 and 22 on basal gastric acid secretion were measured according to Shay's rat model (Shay, H., et al., 1945, gastroenterology, 5, p 43-61). Male Sprague Dawley (SD) rats (body weight 180-220 g) were divided into 4 groups (n=6-7) and fasted for 18 hours with free access to water. Under isoflurane anesthesia, the abdomens of the rats were incised and then the pylorus was ligated. Immediately after ligation, control group was administered with 2 mL/kg of 0.5% methyl cellulose (MC) aqueous solution into the duodenum, and the other groups were administered with test compounds suspended in 0.5% methyl cellulose (MC) aqueous solution at a dose of 2.0 mg/kg/2 ml. 5 hours after ligation, the test animals were sacrificed, and gastric contents were removed. The removed contents were centrifuged at 4,000×g for 10 minutes and the supernatant was separated to obtain the gastric juice. The amount and pH of the gastric juice were measured and the acidity in the gastric juice was measured by 0.1N NaOH volume (ueq/mL) required for the titration of gastric acid to pH 7.0. Total acid output was measured by multiplying the acidity of the gastric juice by the amount of the gastric juice. % inhibitory activity of test compounds were calculated according to the following equation, and the results are shown in Table 2. % inhibitory activity of test compound=[(total acid output of control group-total acid output of the group treated with test compounds)/total acid output of control group]×100 [Equation 1]

[2] = test system: indomethacin-induced gastric damage in rats; assay: Gastric damage inhibitory activity against indomethacin-induced gastric damage in rats; type: in vivo, Sprague Dawley (SD) rats; details: 2.0 mg/kg oral, 1 hour before indomethacin 80 mg/kg
Experimental: The inhibitory activity against the gastric damage of the compounds prepared in Examples 2 and 8 was measured using indomethacin model (Chiou., Et al., 2005, gastroenterology, 128, p 63-73). Male Sprague Dawley (SD) rats (body weight 180-220 g) was divided into 5 groups (n=10) and fasted for 24 hours with free access to water. Control group was orally administered with 5 mL/kg of 0.5% methyl cellulose (MC) aqueous solution, and the other groups were orally administered with test compounds suspended in 0.5% methyl cellulose (MC) aqueous solution at a dose of 2.0 mg/kg/5 ml. For comparison, the compound of Example 134 (Comparative Example 1) and the compound of Example 165 (Comparative Example 2) in International Patent Publication No. WO 2006/036024 were orally administered at a dose of 2.0 mg/kg/5 ml by suspending 0.5% methylcellulose (MC) aqueous solution, respectively. […] The incised stomach was placed on a fixture, fixed by a fixing pin while spreading out using a forcep and then the gastric damage area was measured. % Inhibitory activity of test compounds was calculated according to the following Equation 2, and the results are shown in Table 3. % Inhibitory activity of test compound=[1−(gastric damage area % of the group treated with test compounds)/(gastric damage area % of control group)]×100 [Equation 2]

CNCc1cn(S(=O)(=O)c2cccc(C(F)(F)F)c2)c(-c2ccccc2F)c1OC [Example 2, hydrochloride]
% inhibitory activity (total acid output) [1]: 93.5% | % inhibitory activity (gastric damage area) [2]: 91.8%
